Publication PMC12736791, “Co-Amorphous Systems Based on Dihydroquercetin and L-Lysine: Synthesis and Evaluation” (Pharmaceutics, 2025)
Values after ≈ are worked out from the molar mass of the structure shown. Read-outs that look alike come from different tables or passages of the source.

Key:
[1] = design: method as in PMID 38139995; details: unmodified flavonoid; cited from earlier work
[2] = test system: Caco-2 cells; experiment: Cytotoxicity assay (CCK-8), Caco-2; format: cell-based, human; details: Caco-2, 24 h
Experimental: (§1) The cells were cultured in a medium containing DMEM:FBS:MEM:P/S in a ratio of 88:10:1:1 for Caco-2 (immortalized human colorectal adenocarcinoma) cells, and DMEM:FBS:P/S in a ratio of 89:10:1 for HUVEC (Human umbilical vein endothelial cells), 3T3 (mouse embryonic fibroblasts), and HEK293 (immortalized human embryonic kidney) cell lines. The cell cultures were maintained in 100 mm diameter Petri dishes within a CelMate® CO2 Incubator (Esco Lifesciences Group, Singapore) at 37 °C in an atmosphere containing 5% carbon dioxide and a relative humidity of 95%. The culture medium was refreshed every 24 h.
(§2) To determine cell concentration, 1.0 mL of a trypsin solution containing EDTA, pre-warmed to 37 °C, was added to a Petri dish and incubated for up to 5 min. […] Subsequently, 100 µL of the solution was introduced into the Neubauer chamber XB.K.25 (QUIJING, Shanghai, China), and the concentration (cells/mL) was calculated using the following formula:(1) C=Ncell/Nsquares×[…], where Ncell represents the number of cells counted in the Neubauer chamber field and Nsquares represents the number of squares in the Neubauer chamber used for concentration calculation. […]
(§3) The resulting solutions were analyzed on a microplate spectrophotometer Eon (BioTek, Winooski, VT, USA) at the maximum absorption of the reduced form of CCK-8, measured at 450 nm. […]

[3] = test system: HUVEC cells; experiment: Cytotoxicity assay (CCK-8), HUVEC; format: cell-based, human; details: 24 h
Experimental: as §1, §2, §3

[4] = test system: HEK293 cells; experiment: Cytotoxicity assay (CCK-8), HEK293; format: cell-based, human; details: HEK293, 24 h
Experimental: as §1, §2, §3

[5] = test system: 3T3 cells; experiment: Cytotoxicity assay (CCK-8), 3T3; format: cell-based, mouse
Experimental: as §1, §2, §3

[6] = design: method as in earlier work; details: water, room temperature; European Pharmacopoeia 11.5; cited from earlier work
[7] = Solubility studies, pharmacopoeial descriptive terms; format: physicochemical; details: in water at room temperature
Experimental: The analysis was performed in accordance with the pharmacopoeial monograph of the State Pharmacopoeia of the Russian Federation XV, which is equivalent to the terms of the Pharmacopoeia of the Eurasian Economic Union and the European Pharmacopeia 11.5 at ambient conditions.
A measured amount of solvent was added to the suspension of the substance, and the mixture was continuously shaken for 1 min and placed in a thermostat set at a temperature of 24.5–25.5 °C for 15 min. If the substance had not completely dissolved, the shaking process was repeated for another minute, and the solution was kept in the thermostat for another 15 min period at the same temperature.

O=c1c(-c2ccc(O)cc2)coc2cc(O)cc(O)c12 [genistein]
Solubility of genistein [1]: 50 ± 10 ng/mL

O=C1c2c(O)cc(O)cc2OC(c2ccc(O)c(O)c2)C1O (centres unmarked) [DHQraw, 2,3-dihydro-3,5,7-trihydroxy-2-(3,4-dihydroxyphenyl)-4H-1-benzopyran-4-one]
IC50 ([2]; Homo sapiens, read-out: IC50): 65 µg/mL | IC50 ([3]; Homo sapiens, read-out: IC50): 88 µg/mL (≈ 289 µM) | IC50 ([4]; Homo sapiens, read-out: IC50): 39 µg/mL (≈ 128 µM) | IC50 ([5]; Mus musculus, NIH3T3, 3T3, 24 h, read-out: IC50): 96 µg/mL (≈ 316 µM) | Solubility (pharmacopoeial descriptive term) [6]: very slightly soluble | Solubility (pharmacopoeial descriptive term) [7]: very slightly soluble

NCCCC[C@H](N)C(=O)O [LYSlyo]
IC50 [2]: 538 µg/mL | IC50 [3]: 826 µg/mL (≈ 5650 µM) | IC50 [4]: 1490 µg/mL (≈ 10200 µM) | IC50 ([5]; 3T3, 24 h): above the maximum concentration
